Laboratory results: paper PMC6982127, “GTP Binding Is Necessary for the Activation of a Toxic Mutant Isoform of the Essential GTPase ObgE” (International Journal of Molecular Sciences, 2019)
Like-named read-outs stand apart in the source and are kept apart here.

Legend:
Experiment in all cases: isothermal titration calorimetry
Assay type in all cases: binding
ObgE [1] = biological target: T1, ObgE (Escherichia coli, UniProt P42641, DEL153-156)
T1 construct: full-length ObgE, N-terminal His6 tag (pET28a-obgE), expressed in E. coli BL21(DE3) pLysS, Ni-NTA and size exclusion, made nucleotide-free by alkaline phosphatase
T1 sequence (P42641 with tags, fused parts or gaps DEL153-156): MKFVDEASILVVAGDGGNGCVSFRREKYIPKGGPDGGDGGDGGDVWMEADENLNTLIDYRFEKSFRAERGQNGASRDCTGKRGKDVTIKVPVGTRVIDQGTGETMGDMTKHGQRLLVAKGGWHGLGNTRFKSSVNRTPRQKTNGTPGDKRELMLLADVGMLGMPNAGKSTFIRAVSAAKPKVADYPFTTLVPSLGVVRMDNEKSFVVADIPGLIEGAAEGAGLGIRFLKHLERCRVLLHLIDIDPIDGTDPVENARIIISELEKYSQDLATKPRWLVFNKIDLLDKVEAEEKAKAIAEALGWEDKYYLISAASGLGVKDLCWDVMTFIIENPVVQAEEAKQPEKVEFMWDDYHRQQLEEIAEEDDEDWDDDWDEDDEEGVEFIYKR
Source text: (§1) isothermal titration calorimetry on ObgE

ObgE [2] = biological target: T2, ObgE (Escherichia coli, UniProt P42641, E265K)
T2 construct: full-length ObgE, N-terminal His6 tag (pET28a-obgE), expressed in E. coli BL21(DE3) pLysS, Ni-NTA and size exclusion, made nucleotide-free by alkaline phosphatase
T2 sequence (P42641 whole entry E265K): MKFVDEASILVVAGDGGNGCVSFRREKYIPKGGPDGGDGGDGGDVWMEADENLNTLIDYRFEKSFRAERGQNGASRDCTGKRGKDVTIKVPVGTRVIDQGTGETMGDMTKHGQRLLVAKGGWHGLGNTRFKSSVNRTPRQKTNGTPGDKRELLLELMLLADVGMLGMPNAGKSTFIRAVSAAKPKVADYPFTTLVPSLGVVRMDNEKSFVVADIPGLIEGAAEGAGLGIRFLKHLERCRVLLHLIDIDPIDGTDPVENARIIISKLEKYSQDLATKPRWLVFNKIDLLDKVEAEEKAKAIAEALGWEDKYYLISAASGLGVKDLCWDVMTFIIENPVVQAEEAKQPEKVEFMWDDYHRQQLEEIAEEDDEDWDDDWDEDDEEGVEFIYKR
Source text: as §1

ObgE [3] = biological target: T3, ObgE (Escherichia coli, UniProt P42641, T174I)
T3 construct: full-length ObgE, N-terminal His6 tag (pET28a-obgE), expressed in E. coli BL21(DE3) pLysS, Ni-NTA and size exclusion, made nucleotide-free by alkaline phosphatase
T3 sequence (P42641 whole entry T174I): as the sequence (P42641 whole entry E265K) above, with T174I, K265E counted along it
Source text: as §1

ObgE [4] = biological target: T4, ObgE (Escherichia coli, UniProt P42641, H234R)
T4 construct: full-length ObgE, N-terminal His6 tag (pET28a-obgE), expressed in E. coli BL21(DE3) pLysS, Ni-NTA and size exclusion, made nucleotide-free by alkaline phosphatase
T4 sequence (P42641 whole entry H234R): as the sequence (P42641 whole entry E265K) above, with H234R, K265E counted along it
Source text: as §1

[5] = read-out: Equilibrium Dissociation Constants / KD(GTPγS)
[6] = read-out: Equilibrium Dissociation Constants / KD(ppGpp)
[7] = read-out: Equilibrium Dissociation Constants / KD(GDP)

Nc1nc2c(ncn2[C@@H]2O[C@H](COP(=O)(O)OP(=O)(O)OP(O)(O)=S)[C@@H](O)[C@H]2O)c(=O)[nH]1 [GTPγS]
Kd (ObgE [1]; [5]): 3400 ± 500 nM | Kd (ObgE [2]; [5]): 5700 ± 800 nM | Kd (ObgE [3]; [5]): 160000 ± 11000 nM | Kd (ObgE [4]; [5]): 3700 ± 500 nM

Nc1nc2c(ncn2[C@@H]2O[C@H](COP(=O)(O)OP(=O)(O)O)[C@@H](OP(=O)(O)OP(=O)(O)O)[C@H]2O)c(=O)[nH]1 [ppGpp]
Kd (ObgE [1]; [6]): 640 ± 60 nM | Kd (ObgE [2]; [6]): 310 ± 30 nM | Kd (ObgE [3]; [6]): 81000 ± 3000 nM | Kd (ObgE [4]; [6]): 600 ± 60 nM

Nc1nc2c(ncn2[C@@H]2O[C@H](COP(=O)(O)OP(=O)(O)O)[C@@H](O)[C@H]2O)c(=O)[nH]1 [GDP]
Kd (ObgE [1]; [7]): 600 ± 50 nM | Kd (ObgE [2]; [7]): 250 ± 30 nM | Kd (ObgE [3]; [7]): 115000 ± 2000 nM | Kd (ObgE [4]; [7]): 430 ± 50 nM
